What was measured:
[1] = system: U-87 MG; assay: LDH release assay, U-87 MG; format: cell-based, human; settings: 1.5 μM, 24 h
Method: Analogous to the procedure described in the previous section, A172 and U-87 MG cells were cultured and plated in 96-well plates. The LDH-Cytotoxicity Assay Kit II (ab65393) (Abcam, Cambridge, UK) was used to assess cytotoxicity according to the manufacturer’s protocol. The test compounds MM118 and MM119 and the reference compound temozolomide (TMZ) were added to the cells at a concentration of 1.5 μM. After 24 h of exposure, the medium was collected, centrifuged and 10 μL of each sample was transferred to a new 96-well plate. In the next step, 100 μL of LDH Reaction Mix was added to each well and incubated for 30 min at room temperature. Absorbance was measured at 450 nm using an Absorbance 96 microplate reader (Byonoy GmbH, Hamburg, Germany). Cytotoxicity was calculated according to the formula provided by the manufacturer: Cytotoxicity (%) = ((Test Sample – Low Control)/(High Control – Low Control)) X 100, where Low Control - control without added compound, High Control with added 10 µL Lysis Buffer II.

[2] = system: A172; assay: Mitochondrial membrane potential (JC-1), A172; format: cell-based, human; settings: A172, 1.5 μM, 24 h
Method: The impact of the novel compounds on mitochondrial membrane potential (ΔΨm) was examined. […] In this study, the fluorochrome JC-1 was employed, which, in cells with normally functioning mitochondria, aggregates and accumulates in the hyperpolarized mitochondrial membrane, emitting a red colour. Conversely, when the membrane is damaged, JC-1 breaks down into monomers, emitting green fluorescence. […] For the U-87 MG cell line, these parameters were equal to 54.88 ± 8.36% and 56.13 ± 13.97% of the cell population.
JC-1 (1,1′,3,3′-Tetraethyl-5,5′,6,6′-tetrachloroimidacarbocyanine iodide) (BD Biosciences, San Diego, CA, USA), a lipophilic fluorochrome, was used to evaluate changes in mitochondrial membrane potential. After treatment, cancer cells at a concentration of 1 × 10^6 cells/mL were collected and rinsed twice with PBS. Then, 500 μL JC-1 working solution was added to each sample according to the manufacturer’s protocol. The samples were then incubated for 15 min at 37 °C in a CO2 incubator. After incubation, samples were washed twice with an assay buffer, and 500 μL of each sample was transferred to a BD FACSCanto II flow cytometer (Becton Dickinson Biosciences, San Jose, CA, USA) for analysis, with 10,000 events recorded per sample. Data were analysed using FACSDiva software version 6.1.3 (BD Biosciences Systems, San Jose, CA, USA).

[3] = system: caspase 9; assay: Caspase 9 activation (FAM FLICA), U-87 MG; format: cell-based, human; settings: 1.5 μM, 24 h
Method: (§1) The activity of caspase 1, caspase 3/7, caspase 8, and caspase 9 was evaluated through the utilisation of FAM FLICA Caspase Assays (ImmunoChemistry Technologies, Bloomington, MN, USA), in accordance with the established protocols. Following treatment with the compounds, the cells were collected at a concentration of 1 × 10^6 cells/mL, washed twice with cold PBS, and resuspended in 290 μL of PBS. The subsequent step involved the addition of 10 μL of 30X FLICA solution, followed by incubation at 37 °C in the absence of light for one hour. Then, 2 ml of Apoptosis Wash Buffer was added, and the samples were washed twice. A 300 μL aliquot of each sample was transferred to a BD FACSCanto II flow cytometer (Becton Dickinson Biosciences, San Jose, CA, USA), where 10,000 events per sample were recorded. The resulting data was then analysed using FACSDiva software, version 6.1.3 (BD Biosciences Systems, San Jose, CA, USA).

[4] = system: caspase 1; assay: Caspase 1 activation (FAM FLICA), A172; format: cell-based, human; settings: 24 h
Method: (§2) Given the activation of oxidative stress and the occurrence of apoptotic cell death, we decided to verify whether other cell death pathways are triggered. The level of pyroptosis induction of the newly synthesised compounds MM118 and MM119 was determined by assessing the activation of caspase 1. This method facilitates the identification of cells undergoing pyroptosis by detecting the active form of caspase 1, which is a pivotal mediator in the pyroptotic pathway. The tested compounds were analysed on human A172 and U-87 MG glioblastoma multiforme cell lines using concentrations of 1 μM and 1.5 μM for a period of 24 h. […] Conversely, for compound MM119 in line A172, caspase 1 activation was 12.35 ± 2.00% at a concentration of 1 μM and 21.30 ± 1.57% at a concentration of 1.5 μM. For the U-87 MG line, the values were 12.25 ± 2.16% and 24.50 ± 2.11%, respectively.
as §1

[5] = system: caspase 1; assay: Caspase 1 activation (FAM FLICA), U-87 MG; format: cell-based, human; settings: 24 h
Method: as §2, §1

[6] = system: NF-κB; assay: NF-kB staining (immunofluorescence, confocal); format: cell-based; settings: 1.5 μM, 24 h of treatment
Method: Location of NF-kB was evaluated by immunofluorescence staining. Cells were cultured on sterile coverslips placed in 6-well plates and treated with compounds MM118, MM119, and TMZ at a concentration of 1.5 μM. After 24 h of treatment, cells were fixed with 4% paraformaldehyde for 15 min at room temperature, then permeabilized with 0.1% Triton X-100 in PBS for 10 min. Following permeabilization, cells were blocked with 2% BSA (bovine serum albumin; Cell Signalling Technology, Danvers, MA, USA) in PBS for 30 min to prevent non-specific binding. Subsequently, cells were incubated overnight at 4 °C with a NF-KB antibody directly conjugated with Alexa Fluor 647 (#D14E12; Cell Signalling Technology, Danvers, MA, USA). The next day, after washing with PBS, nuclei were counterstained with DAPI (4′,6-diamidino-2-phenylindole; Sigma-Aldrich, St. Louis, MO, USA) for 5 min at room temperature. Coverslips were mounted onto glass slides using an antifade mounting medium and imaged using a Stellaris 5 confocal microscope (Leica Microsystems, GmbH, Wetzlar, Germany). Images were analysed using ImageJ software (Bethesda, MD, USA).

Compound	LDH release, cytotoxicity [1] [%]	Decreased ΔΨm (cell population) [2] [%]	Active caspase 9 (cell population) [3]	Active caspase 1 (cell population) ([4]; A172, 1.0 μM) [%]	Active caspase 1 (cell population) ([4]; A172, 1.5 μM)	Active caspase 1 (cell population) ([5]; 1.0 μM) [%]	Active caspase 1 (cell population) ([5]; 1.5 μM)	NF-κB localisation [6]
CCC(CO)NS(=O)(=O)c1ccc(-n2nc(C)c3nc4nnnn4nc32)cc1 (stereo in doubt) [MM118, N-(R)-(1-hydroxy-but-2-yl)-4-[7-methyl-5H-pyrazolo[4,3-e]tetrazolo[1,5-b][1]^,[2]^,[4]triazin-5-yl)]benzenesulfonamide]	24.27 ± 2.74	70.43 ± 1.44	67.23 ± 1.66%	12.10 ± 1.69	20.38 ± 1.75%	17.15 ± 1.81	26.65 ± 2.28%	NF-κB translocates to the cell nucleus
CCC(CO)NS(=O)(=O)c1ccc(-n2nc(C)c3nc4nnnn4nc32)cc1 (stereo in doubt) [MM119, N-(S)-(1-hydroxy-but-2-yl)-4-[7-methyl-5H-pyrazolo[4,3-e]tetrazolo[1,5-b][1]^,[2]^,[4]triazin-5-yl)]benzenesulfonamide]	28.02 ± 5.27	64.38 ± 1.90	51.45 ± 1.63%	12.35 ± 2.00	21.30 ± 1.57%	12.25 ± 2.16	24.50 ± 2.11%	NF-κB translocates to the cell nucleus
Cn1nnc2c(C(N)=O)ncn2c1=O [TMZ, temozolomide, reference compound]	1.18 ± 0.25	20.25 ± 9.20	no significant differences		no significant differences		no significant differences	NF-κB translocates to the cell nucleus

Reference: paper PMC12679848, “Sulphonamide derivatives with a triazine core as novel inducers of apoptosis and pyroptosis in glioblastoma multiforme cells” (Journal of Enzyme Inhibition and Medicinal Chemistry, 2025)
